Test results reported in article PMC12615753, “Glutathione as a taste modulator: molecular mechanisms of interaction with umami and sweet taste receptors” (Food Chemistry: Molecular Sciences, 2025).

Target: T1, hTAS1R1 Y220A/rTAS1R3 (UniProt Q7RTX1+Q923K1, Y220A)
T1 construct: UniProtKB number Q7RTX1–1); The cDNA coding region of rTAS1R3 was synthesized with optimized-codon usage for human expression; expressed in transfected cells; host or cells: HEK293T/17
T1 sequence (Q7RTX1 21-841 Y220A): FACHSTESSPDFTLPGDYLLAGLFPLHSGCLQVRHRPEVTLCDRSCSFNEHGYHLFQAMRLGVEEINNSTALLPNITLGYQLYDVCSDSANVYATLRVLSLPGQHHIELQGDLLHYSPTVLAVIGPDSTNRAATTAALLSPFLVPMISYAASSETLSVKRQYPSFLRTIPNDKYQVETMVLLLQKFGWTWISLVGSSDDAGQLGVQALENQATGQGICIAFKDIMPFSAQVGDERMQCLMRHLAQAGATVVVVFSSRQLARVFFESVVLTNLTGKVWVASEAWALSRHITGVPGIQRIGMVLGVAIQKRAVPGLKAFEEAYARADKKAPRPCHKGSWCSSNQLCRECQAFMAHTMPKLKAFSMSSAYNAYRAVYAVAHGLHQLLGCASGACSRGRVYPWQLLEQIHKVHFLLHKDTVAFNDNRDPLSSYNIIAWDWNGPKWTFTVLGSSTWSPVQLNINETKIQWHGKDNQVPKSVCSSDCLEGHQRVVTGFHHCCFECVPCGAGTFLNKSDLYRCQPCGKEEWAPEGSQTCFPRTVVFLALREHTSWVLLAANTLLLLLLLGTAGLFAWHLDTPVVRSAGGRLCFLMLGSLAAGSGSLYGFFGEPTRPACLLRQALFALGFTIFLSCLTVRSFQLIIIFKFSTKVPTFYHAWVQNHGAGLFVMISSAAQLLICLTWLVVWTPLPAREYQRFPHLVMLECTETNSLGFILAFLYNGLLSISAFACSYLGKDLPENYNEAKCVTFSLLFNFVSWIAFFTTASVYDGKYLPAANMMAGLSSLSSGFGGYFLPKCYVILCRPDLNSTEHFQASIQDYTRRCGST
T1 sequence (Q923K1 21-858): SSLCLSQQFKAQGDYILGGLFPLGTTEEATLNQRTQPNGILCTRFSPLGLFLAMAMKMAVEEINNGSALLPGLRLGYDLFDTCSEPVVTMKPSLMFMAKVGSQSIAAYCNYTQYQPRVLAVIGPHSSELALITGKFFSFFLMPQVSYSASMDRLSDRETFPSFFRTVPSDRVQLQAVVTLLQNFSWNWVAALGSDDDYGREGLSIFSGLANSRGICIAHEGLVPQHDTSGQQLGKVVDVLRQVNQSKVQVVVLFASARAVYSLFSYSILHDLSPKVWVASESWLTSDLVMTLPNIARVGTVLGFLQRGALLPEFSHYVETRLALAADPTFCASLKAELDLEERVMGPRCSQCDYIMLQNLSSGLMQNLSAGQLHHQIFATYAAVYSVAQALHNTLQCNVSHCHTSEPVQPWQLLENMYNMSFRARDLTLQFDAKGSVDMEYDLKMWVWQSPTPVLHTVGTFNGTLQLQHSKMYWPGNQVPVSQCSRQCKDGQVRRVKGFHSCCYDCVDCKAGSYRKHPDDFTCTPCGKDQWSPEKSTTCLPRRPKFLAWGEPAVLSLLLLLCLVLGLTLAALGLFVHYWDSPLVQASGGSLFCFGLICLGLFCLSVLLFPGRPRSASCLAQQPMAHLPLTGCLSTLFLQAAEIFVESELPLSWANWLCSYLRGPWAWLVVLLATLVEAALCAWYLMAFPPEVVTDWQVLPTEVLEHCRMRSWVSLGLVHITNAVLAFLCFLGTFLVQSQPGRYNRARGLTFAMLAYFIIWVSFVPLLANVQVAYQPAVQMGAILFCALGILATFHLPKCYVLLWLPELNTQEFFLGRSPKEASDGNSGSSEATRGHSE
Assay: Calcium assay, hTAS1R1 mutant co-expressed with rTAS1R3
Type: cell-based, human, rat
Settings: for response to the agonist alone, vs WT: Y220A
Description: Chimeric Gα proteins, such as Gα16Gust44, Gα16Gi3 or Gα15i2, are widely used in the functional expression of TAS1R receptors ([Backes et al., 2015]; [Suess et al., 2015]; [Toda et al., 2021], [Toda et al., 2013], [Toda et al., 2018]; [Zhang et al., 2008]). Chimeric Gα15i2 (([Toda et al., 2013]), Supplementary data) was generated by replacing the last five residues of the C-terminal tail of rat Gα15i2 (EINLL) (UniProt number G3V6N8; https://www.uniprot.org/uniprot/) with the counterpart sequence from human GNAI2 (DCGLF) (UniProt number P04899-1) and cloning into the pcDNA3.1/Hygro vector (Invitrogen, Thermo Fisher Scientific, Illkirch, France) between the HindIII and NotI restriction sites, resulting in the plasmid pcDNA3.1-Gα15i2. Chimeric Gα16Gust44 construct have already been reported ([Raliou et al., 2011]). Briefly, Gα16Gust44 was generated by replacing the C-terminal of Gα16 with the C-terminal 44 residues of gustducin. As previously described, hTAS1R1 was amplified from human fungiform papillae cDNA and cloned and inserted into pcDNA3 (Invitrogen), generating pcDNA3-TAS1R1-WT (wild-type) ([Raliou et al., 2011]). […] The cDNA coding region of rTAS1R3 was synthesized with optimized-codon usage for human expression (Genewiz) and was cloned and inserted into the mammalian pcDNA4/myc-HisA (Invitrogen) expression vector between the EcoRI and NotI restriction sites, resulting in the plasmid pcDNA4-rTAS1R3. […] The sequence integrity of all the plasmid constructs was verified via automated DNA sequencing (Genewiz).
The hTAS1R1 mutants were co-expressed with the rTAS1R3 subunit in HEK293 cells. […] As a control, the functionality of the mutated receptors was checked after stimulation with S807 (Fig. S8), which interacts with TAS1R1-TMD ([Zhang et al., 2008]).

SMILES	EC50	response to the agonist alone, vs WT
N[C@@H](CCC(=O)N[C@@H](CS)C(=O)NCC(=O)O)C(=O)O [GSH, γ-L-glutamyl-L-cysteinyl-glycine]	> 30 mM	fully abolished
N[C@@H](CCC(=O)O)C(=O)O [L-Glu, L-glutamic acid, reference compound]	–	completely suppressed
CCCC(CCC)NC(=O)c1ccc2c(c1)OCO2 [S807, N-(heptan-4-yl)benzo[d][1,3]dioxole-5-carboxamide, reference compound]	–	strongly affected
